Assay results published in US12329733B2, “Acetyl-leucine or a pharmaceutically acceptable salt thereof for improved mobility and cognitive function” (INTRABIO LTD., priority 2016, dated 2025).

Key:
[1] = tested on: subjects (cognitive function); assay: subject and family reports of cognitive function and alertness; format: in vivo, human; details: for Details on Subjective Improvement / Subjective Improvement on treatment?: 5 g/day
From the text: “Cognitive function” can mean any mental process that involves a symbolic operation, for example, perception, memory, creation of imagery, awareness, reasoning, thinking and capacity for judgment. Measures of cognitive functioning include assessment tools designed to measure, for example: (a) general intelligence, (b) nonverbal intelligence, (c) achievement, (d) attention/executive functioning, (e) memory and learning, (f) visual-motor and motor functioning and (g) language. Such assessment tools are well-known in the art and include, for example, Wechsler Adult Intelligence Scale and Woodcock-Johnson III Tests of Cognitive Abilities (both for assessing general intelligence), Raven Progressive Matrices (for assessing nonverbal intelligence), Wide Range Achievement Test and Woodcock-Johnson III Tests of Achievement (for assessing academic achievement), Conners' Continuous Performance Test II (for assessing attention/executive functioning), Wide Range Assessment of Memory and Learning (for assessing memory and learning), Bender Visual-Motor Gestalt Test, Halstead-Reitan Grip Strength Test, Halstead-Reitan Finger Tapping Test and Lafayette Grooved Pegboard Task (all for assessing visual-motor and motor functioning) and Peabody Picture Vocabulary Test (for assessing language).

[2] = tested on: subjects with no apparent dysfunction in cognitive ability or movement/balance; assay: balancing ability (eyes closed, non-dominant foot lifted, timed); format: in vivo, human
Procedure: Due to reported improvement in balance on treatment we measured balancing ability at the end of the treatment period and at the end of the washout period. This assessment required the subject to close their eyes and lift their non-dominant foot around 6 inches off the ground. The subject was then timed to see how long they could remain upright and without significant wobbles. This was repeated three times, and the values averaged. […] This assessment required the subject to close their eyes and lift their non-dominant foot around 6 inches off the ground. The subject was then timed to see how long they could remain upright and without significant wobbles. This was repeated three times, and the values averaged. We measured balancing ability at the end of the treatment period and at the end of the washout period. This assessment required the subject to close their eyes and lift their non-dominant foot around 6 inches off the ground. The subject was then timed to see how long they could remain upright and without significant wobbles. This was repeated three times, and the values averaged.

[3] = tested on: patients with cerebellar ataxia of different etiologies; details: in responders, ref (8); cited from earlier work
[4] = tested on: patient with postural imbalance; assay: Scale for the Assessment and Rating of Ataxia (SARA); format: in vivo, human; details: Example 6: 5 g/day for 1 month; baseline 6.5/40
From the text: (§1) The patient was examined clinically by means of the following clinical assessments: maximal distance to walk; timed Up and Go test; Scale for the Assessment and Rating of Ataxia (SARA).

[5] = tested on: patient with postural imbalance; assay: maximal distance to walk; format: in vivo, human; details: Example 6: person; 5 g/day (2/1.5/1.5 g) for 1 month; baseline 1 km
From the text: as §1
Baseline (prior to commencement of treatment): Maximal distance to walk until the patient could not walk anymore because of fatigue was 1 km. The […] up-and-go test yielded 25.4 sec. SARA yielded 6.5/40. […] Tandem stance and gait was not possible to perform due to an increased fall risk. Mean timed 8-meter-walking test was 6.5 sec.

[6] = Example 1: person, 4.5 g/day, after 2-3 weeks of treatment

CC(=O)NC(CC(C)C)C(=O)O (racemic) [acetyl-DL-leucine]
cognition after ceasing treatment ([1]; Example 1: after one-month course ceased): gradually declined to their pre-treatment status over one month
alertness on waking (subject's description) [1, 6]: fully alert on waking
cognitive function, spatial awareness and general demeanor (family) [1, 6]: significant improvement in their cognitive function, spatial awareness and general demeanor
confusion evident prior to treatment ([1]; Example 1: remains on 4.5 g per day): entirely absent
communication and executive function (family) ([1]; Example 6: 5 g/day for 1 month): executive function improved
energy, agility (subjective) ([1]; Example 6: 5 g/day for 1 month): more energy, was more agile and interactive
Details on Subjective Improvement ([1]; Example 7: 66 M): improvement in general alertness and a shortening of the time required to go from ‘asleep’ to ‘fully awake’
Subjective Improvement on treatment? ([1]; Example 7: 66 M): Yes
Details on Subjective Improvement ([1]; Example 8: 29 M): improvement in general alertness. They also reported a decrease in anxiety
Subjective Improvement on treatment? ([1]; Example 8: 29 M): Yes
Details on Subjective Improvement ([1]; Example 9: 55 F): shortening of the time required to go from ‘asleep’ to ‘fully awake’
Subjective Improvement on treatment? ([1]; Example 9: 55 F): Yes
Subjective Improvement on treatment? ([1]; Example 10: […]): no difference between on and off medication
Subjective Improvement on treatment? ([1]; Example 10: […], listed as acetyl-leucine): No
Details on Subjective Improvement ([1]; Example 11: 53 M): improvement in general alertness and a shortening of the time required to go from ‘asleep’ to ‘fully awake’
Subjective Improvement on treatment? ([1]; Example 11: 53 M): Yes
Details on Subjective Improvement ([1]; Example 12: 48 F): feeling less tired than usual and taking less time than was usual to go from asleep to fully awake
Subjective Improvement on treatment? ([1]; Example 12: 48 F): Yes
time able to remain balanced (average of 3 tests) ([2]; Example 7: 66 M, end of washout period): 4.01 s
time able to remain balanced (average of 3 tests) ([2]; Example 7: 66 M, last day of treatment period): 7.27 s
time able to remain balanced (average of 3 tests) ([2]; Example 9: 55 F, end of washout period): 8 s
time able to remain balanced (average of 3 tests) ([2]; Example 9: 55 F, last day of treatment period): 12 s
time able to remain balanced (average of 3 tests) ([2]; Example 11: 53 M, end of washout period): 3.1 s
time able to remain balanced (average of 3 tests) ([2]; Example 11: 53 M, last day of treatment period): 7.9 s
brain metabolism (PET) [3]: increased metabolism in the midbrain and lower brainstem
SARA [4]: 2 /40
Maximal distance to walk [5]: 1.5 km
